Patent US20160168140A1, “HETEROCYCLIC COMPOUNDS AS ANTIBIOTIC POTENTIATORS” (priority 2014, published 2016)

Test system: Acinetobacter baumannii (Ab23)
Experiment: MIC shift assay of antibiotics (broth microdilution)
Assay type: cell-based
Details: compound concentration 1 μM; fold shift of colistin MIC; nc = no changeover or no shift
Protocol: Minimum inhibitory concentration (MIC) shift assays were performed to determine if the test compounds could alter the MIC of existing antibacterial drugs (e.g., ciprofloxacin and colistin) for E. coli, Acinetobacter baumannii, Klebsiella pneumoniae, Pseudomonas aeruginosa, and Enterobacter cloacae. The MIC shift assay is based on the standard broth microdilution MIC determination protocol of Wiegand et al, Nat Protoc. 3(2):163-75 (2008), with slight modifications that allow for the screening of up to seven test compounds in a single plate.
On the day before an assay, bacteria were grown overnight in cation-adjusted Mueller Hinton broth (CAMHB; Teknova, Hollister, Calif.) at 37° C. in an orbital shaker and sub-cultured at a 1:200 dilution the following morning. The cells were grown to OD600=0.5 to 0.8 and then diluted to OD600=0.01. From a serial dilution of each antibiotic at (50 μL of 2× concentrated stock solutions) several concentrations were added to the wells of a sterile, transparent round-bottom 96-well plate (Phenix Research Products, Candler, N.C.), and diluted cells (50 μL) were added to the plates for a starting OD600 of 0.005. […] A row of wells lacking test compound but containing the antibiotic was used to determine the MIC of that antibiotic alone. A column of wells lacking both antibiotic and test compound served as a growth control, and an additional column containing only CAMHB was included as a sterile blank control.
The plates were incubated for 18 to 20 h at 37° C. in an orbital shaker, and the cell density (OD600) was determined the following day in a microplate reader (PolarStar Optima, BMG Labtech). The MIC shift was determined by comparing the MIC of the antibiotic alone to the MIC of the antibiotic plus test compound.

Row | colistin MIC shift, Ab23 at (compd concentration) | Compound
1 | 4x (1 μM); | FC(F)(F)c1cccc(-c2c[nH]c3cc(Cl)c(Cl)cc23)c1 [compound 431]

Same assay, conditions: compound concentration 2 μM; fold shift of colistin MIC; nc = no changeover or no shift

Row | colistin MIC shift, Ab23 at (compd concentration) | Compound
2 | 8-16x | CN(C)CCCNc1nc(-c2cc(-c3ccccc3)cc(C(F)(F)F)c2)nc2c(Cl)cccc12 [compound 340]
3 | 8-16x | Cc1cccc2c(NCCCN(C)C)nc(-c3cc(-c4ccccc4F)cc(C(F)(F)F)c3)nc12 [compound 341]
4 | 8-16x | Cc1cccc2c(NCCCN(C)C)nc(-c3cccc(-c4cc(F)cc(C(F)(F)F)c4)c3)nc12 [compound 344]
5 | 8-16x | Cc1cccc2c(NCCCN(C)C)nc(-c3cc(-c4cncs4)cc(C(F)(F)F)c3)nc12 [compound 346]
6 | 8-16x | Cc1cccc2c(NCCCN3CCCCC3)nc(-c3cc(Br)cc(C(F)(F)F)c3)nc12 [compound 347]
7 | 8-16x | CNCCCN(C)c1nc(-c2cc(-c3ccccc3)cc(C(F)(F)F)c2)nc2c(C)cccc12 [compound 349]
8 | 8-16x | CNCCCN(C)c1nc(-c2cccc(-c3cc(F)cc(C(F)(F)F)c3)c2)nc2c(Cl)cccc12 [compound 350]
9 | 8-16x | CN(C)CCCNc1nc(-c2cccc(-c3ccccc3Cl)c2)nc2c(Cl)cccc12 [compound 351]
10 | 8-16x | CCN(CC)CCCNc1nc(-c2cc(Br)cc(C(F)(F)F)c2)nc2c(C)cccc12 [compound 352]
11 | 8-16x | Cc1cccc2c(NCCCN3CCN(C)CC3)nc(-c3cc(Br)cc(C(F)(F)F)c3)nc12 [compound 354]
12 | 8-16x | Cc1cccc2c(NCCCN(C)C)nc(-c3cccc(-c4ccc(C(F)(F)F)c(F)c4)c3)nc12 [compound 355]
13 | 16x | CN(C)CC(=O)n1cc(-c2ccc(Cl)c(Cl)c2)c2cc(Cl)ccc21 [compound 362]
14 | ≧16x (2 μM) | Clc1ccc2[nH]cc(/C=C/c3ccc(Cl)c(Cl)c3)c2c1 [compound 365]
15 | ≧16x (2μM) | Fc1ccc2c(/C=C/c3cccc(Cl)c3Cl)c[nH]c2c1 [compound 383]
16 | 16x | O=C(Nc1ccc(Cl)c(Cl)c1)c1c[nH]c2ccc(Br)cc12 [compound 420]
17 | 4x | O=C(Nc1ccc(Cl)c(Cl)c1)c1c[nH]c2cc(Br)ccc12 [compound 424]
18 | 16x | FC(F)(F)c1cccc(-c2c[nH]c3ccc(Cl)cc23)c1 [compound 430]
19 | ≧16x (2 μM) | FC(F)(F)c1cccc(-c2c[nH]c3cc(Cl)c(Cl)cc23)c1 [compound 431]
20 | 8x | Clc1ccc(-c2c[nH]c3cc(Cl)c(Cl)cc23)cc1Cl [compound 432]

Row | Compound | colistin MIC shift, Ab23 at (compd concentration)
21 | Clc1ccc(/C=C/c2c[nH]c3ccc(Br)cc23)cc1Cl [compound 363] | ≧16x (2 μM)

Same assay, conditions: compound concentration 4 μM; fold shift of colistin MIC; nc = no changeover or no shift

Row | colistin MIC shift, Ab23 at (compd concentration) | Compound
22 | 16-64x | CN(C)CCCn1cc(/C=C/c2ccc(Cl)c(Cl)c2)c2cc(Br)ccc21 [compound 356]
23 | 4-8x | CN1CCN(CCn2cc(/C=C/c3ccc(Cl)c(Cl)c3)c3ccc(F)cc32)CC1 [compound 357]
24 | 16x | CN(C)CCCn1cc(-c2ccc(Cl)c(Cl)c2)c2cc(Cl)ccc21 [compound 359]
25 | 32-64x | FC(F)(F)c1ccc2c(/C=C/c3ccc(Cl)c(Cl)c3)c[nH]c2c1 [compound 364]
26 | 16-64x (4 μM); | Clc1ccc2[nH]cc(/C=C/c3ccc(Cl)c(Cl)c3)c2c1 [compound 365]
27 | 16-32x | Fc1ccc2c(/C=C/c3ccc(Cl)c(Cl)c3)c[nH]c2c1 [compound 366]
28 | 16-32x | Clc1ccc(/C=C/c2c[nH]c3cc(Br)ccc23)cc1Cl [compound 367]
29 | 16-32x | Fc1ccc2[nH]cc(/C=C/c3ccc(Cl)c(Cl)c3)c2c1 [compound 368]
30 | 32x | FC(F)(F)c1ccc2[nH]cc(/C=C/c3ccc(Cl)c(Cl)c3)c2c1 [compound 369]
31 | 32x | Cc1ccc2[nH]cc(/C=C/c3ccc(Cl)c(Cl)c3)c2c1 [compound 370]
32 | 32x | FC(F)(F)c1cccc2[nH]cc(/C=C/c3ccc(Cl)c(Cl)c3)c12 [compound 371]
33 | 8-32x | Fc1cccc2[nH]cc(/C=C/c3ccc(Cl)c(Cl)c3)c12 [compound 372]
34 | 8-16x | COc1ccc2[nH]cc(/C=C/c3ccc(Cl)c(Cl)c3)c2c1 [compound 373]
35 | 16x | Clc1ccc(/C=C/c2c[nH]c3cc(Cl)c(Cl)cc23)cc1Cl [compound 374]
36 | 2x | N#Cc1ccc2[nH]cc(/C=C/c3ccc(Cl)c(Cl)c3)c2c1 [compound 375]
37 | 16-32 x | Fc1ccc2c(/C=C/c3ccc(Br)c(Br)c3)c[nH]c2c1 [compound 378]
38 | 8x | O=[N+]([O-])c1ccc2[nH]cc(/C=C/c3ccc(Cl)c(Cl)c3)c2c1 [compound 379]
39 | 8x | O=[N+]([O-])c1ccc2[nH]cc(/C=C\c3ccc(Cl)c(Cl)c3)c2c1 [compound 380]

Row | colistin MIC shift, Ab23 at (compd concentration) | Compound
40 | 32x (4 μM); | Fc1ccc2c(/C=C/c3cccc(Cl)c3Cl)c[nH]c2c1 [compound 383]
41 | 8-16x | Fc1ccc2c(/C=C/c3cc(Cl)ccc3Cl)c[nH]c2c1 [compound 384]
42 | 8-16 x | Fc1ccc2c(/C=C/c3ccc(F)c(C(F)(F)F)c3)c[nH]c2c1 [compound 385]
43 | 16x | Fc1ccc2c(/C=C/c3cc(C(F)(F)F)cc(C(F)(F)F)c3)c[nH]c2c1 [compound 386]
44 | 16x | Fc1ccc2c(/C=C/c3ccc(C(F)(F)F)cc3)c[nH]c2c1 [compound 387]
45 | 16x | Fc1ccc2c(/C=C/c3cc(Cl)cc(Cl)c3)c[nH]c2c1 [compound 388]
46 | 16x | Fc1ccc2c(/C=C/c3cc(Br)cc(Br)c3)c[nH]c2c1 [compound 389]
47 | 16x | FC(F)(F)c1ccc2c(-c3ccc(Cl)c(Cl)c3)n[nH]c2c1 [compound 390, 3-(3,4-dichlorophenyl)-6-(trifluoromethyl)-1H-indazole]
48 | 16x | FC(F)(F)c1ccc2c(-c3ccc(Cl)c(Cl)c3)nn(Cc3ccc(Cl)cc3)c2c1 [compound 391, 1-(4-chlorobenzyl)-3-(3,4-dichlorophenyl)-6-(trifluoromethyl)-1H-indazole]
49 | 16x | O=C(c1ccc(Cl)c(Cl)c1)n1nc(-c2ccc(Cl)c(Cl)c2)c2ccc(C(F)(F)F)cc21 [compound 392, (3,4-dichlorophenyl)(3-(3,4-dichlorophenyl)-6-(trifluoromethyl)-1H-indazol-1-yl)methanone]
50 | 16x | Fc1ccc2c(/C=C/c3ccc(C(F)(F)F)c(Cl)c3)c[nH]c2c1 [compound 393]
51 | 8x | Fc1ccc2c(/C=C/c3ccc(OC(F)(F)F)cc3)c[nH]c2c1 [compound 394]
52 | 8x | Fc1ccc2c(/C=C/c3cccc(C(F)(F)F)c3)c[nH]c2c1 [compound 396]
53 | 8x | Fc1ccc2c(/C=C/c3cc(Cl)c(Cl)c(Cl)c3)c[nH]c2c1 [compound 397]
54 | 4x | FC(F)(F)c1cccc(-c2ccc3[nH]ccc3c2)c1 [compound 398, 5-(3-(trifluoromethyl)phenyl)-1H-indole]
55 | 8x | Clc1ccc(CCc2c[nH]c3ccc(Br)cc23)cc1Cl [compound 411]
56 | 16 x | Clc1ccc(NCc2c[nH]c3ccc(Br)cc23)cc1Cl [compound 418]
57 | 32x | FC(F)(F)c1cc(Cl)cc(-c2c[nH]c3cc(Cl)c(Cl)cc23)c1 [compound 434]

Row | Compound | colistin MIC shift, Ab23 at (compd concentration)
58 | Clc1ccc(/C=C/c2c[nH]c3ccc(Br)cc23)cc1Cl [compound 363] | 32-64x (4 μM);
59 | Clc1ccc2[nH]cc(-c3ccc(Cl)c(Cl)c3)c2c1 [compound 395, 5-Chloro-3-(3,4-dichlorophenyl)-1H-indole] | 8x

Same assay, conditions: compound concentration 8 μM; fold shift of colistin MIC; nc = no changeover or no shift

Row | colistin MIC shift, Ab23 at (compd concentration) | Compound
60 | 4x | O=C(Nc1cccc(C(F)(F)F)c1)c1c[nH]c2ccc(Br)cc12 [compound 428]

Same assay, conditions: compound concentration 10 μM; fold shift of colistin MIC; nc = no changeover or no shift

Row | colistin MIC shift, Ab23 at (compd concentration) | Compound
61 | 8x | Fc1cccc(/C=C/c2c[nH]c3cc(F)ccc23)c1 [compound 399]
62 | 4x | O=C(O)Cn1cc(/C=C/c2ccc(Cl)c(Cl)c2)c2ccc(F)cc21 [compound 416]
63 | 8x | O=C(O)CCn1cc(/C=C/c2ccc(Cl)c(Cl)c2)c2ccc(F)cc21 [compound 417]
